These results are taken from patent US7205304B2, “Sulfonyl-Derivatives as novel inhibitors of histone deacetylase” (Janssen Pharmaceutica N.V., priority 2002, dated 2007).

As usually defined, the solubility is the concentration that dissolves in the medium under given conditions.

Data set [1] has as its target histone deacetylase (HeLa nuclear extracts). The experiment in a line: In vitro assay for inhibition of histone deacetylase. Type of data set: biochemical. The settings on record: [3H]acetylated histone H4 peptide substrate.
Data set [2] has as its system A2780 ovarian carcinoma cells. As to the kind of experiment: Antiproliferative activity on A2780 cells (MTT). Type of data set: cell-based, human. To be noted: Homo sapiens, A2780, 96 h, four days of incubation, read-out: Cellular activity pIC50 (converted). The essentials: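 A2780 ovarian carcinoma cells were seeded at 1500 cells/well and exposed to compound for four days, with DMSO ≤0.1%. Viability was measured by MTT (2 h, 37° C) and expressed as a percentage of untreated controls after blank subtraction. Initial single-point testing was at 10^−6 M, then full curves gave pIC50.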

Data set [3] can be described thus: Kinetic solubility in aqueous media (nephelometry). In kind it is physicochemical. The settings on record: phosphate citrate buffer, pH 7.4, aqueous buffer, kinetic from dmso stock, phosphate citrate buffer pH 7.4, turbidity of three dilution steps; read-out: Solubility Score. The essentials:
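DMSO stock (5 mM) diluted in three consecutive steps into phosphate citrate buffer pH 7.4, in triplicate; turbidity of each dilution read by nephelometry immediately after the last step. Compounds ranked into 3 classes: score 3 if first dilution clear, 2 if first unclear but second clear.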

The structures appear in SMILES notation. Converted amounts (≈) assume the structure as drawn.

As for `O=C(NO)c1cnc(N2CCN(S(=O)(=O)c3ccc(-c4ccc(C(F)(F)F)cc4)cc3)CC2)nc1` [Compound 185], in data set [1], the “Enzyme activity pIC50” value came out at 6.417. Also, in data set [2], the IC50 was 160 nM. Also, the solubility in data set [3] is less than 75.8 µM.

For the compound `O=C(NO)c1cnc(N2CCN(S(=O)(=O)c3ccc(-c4ccc(CN5CCN(CCOCCO)CC5)cc4)cc3)CC2)nc1` [Compound 165], the “Enzyme activity pIC50” value in data set [1] is given as 7.947. The IC50 in data set [2] is 55.6 nM. Besides, the solubility in data set [3] was less than 75.8 µM.

As for `O=C(NO)c1ccc(N2CCN(S(=O)(=O)c3ccc(Cl)c(Cl)c3)CC2)cc1` [Compound 80], in data set [1], the “Enzyme activity pIC50” value is recorded as 5.961. Further, the IC50 in data set [2] is 1230 nM. Moreover, in data set [3], the solubility was less than 75.8 µM.

Regarding `O=C(NO)c1cnc(N2CCN(S(=O)(=O)c3ccc(-c4cccc(C(F)(F)F)c4)cc3)CC2)nc1` [Compound 102], the “Enzyme activity pIC50” value in data set [1] was 7.162. In addition, in data set [2], the IC50 was 353 nM. Also, in data set [3], the solubility lay in the range of 75.8 to 454 µM (≈ 38.5 to 231 µg/mL).

On to `CN(C)CCCOc1ccccc1-c1ccc(S(=O)(=O)N2CCN(c3ncc(C(=O)NO)cn3)CC2)cc1` [Compound 154], for which the “Enzyme activity pIC50” value in data set [1] is given as 8.869. In data set [2], the IC50 was 64 nM. In addition, the solubility in data set [3] is less than 75.8 µM.

In the case of `Cn1cnc(S(=O)(=O)N2CCN(c3ccc(C(=O)NO)cc3)CC2)c1` [Compound 65], the “Enzyme activity pIC50” value in data set [1] worked out at 5.775. Further, in data set [2], the IC50 was greater than 10000 nM. The solubility in data set [3] was greater than 454 µM.

As for `O=C(NO)c1cnc(N2CCN(S(=O)(=O)c3ccc(-c4ccc(CN5CCN(CCO)CC5)cc4)cc3)CC2)nc1` [Compound 166], the “Enzyme activity pIC50” value in data set [1] amounted to 7.969. Also, the IC50 in data set [2] is 61.4 nM. For the same compound, the solubility in data set [3] is less than 75.8 µM.

Regarding `CN(C)CCc1cccc(-c2ccc(S(=O)(=O)N3CCN(c4ncc(C(=O)NO)cn4)CC3)cc2)c1` [Compound 172], the “Enzyme activity pIC50” value in data set [1] stood at 8.566. Moreover, the IC50 in data set [2] is 64.4 nM. Further, in data set [3], the solubility is greater than 454 µM.

On to `NCCNC(=O)c1ccc(N2CCN(S(=O)(=O)c3ccc4ccccc4c3)CC2)cc1` [Compound 18], for which the “Enzyme activity pIC50” value in data set [1] is given as less than 5. The IC50 in data set [2] is 4080 nM. Further, the solubility in data set [3] was less than 75.8 µM.

With `Cc1ccc(S(=O)(=O)N2CCN(c3ccc(C(=O)NO)cc3)CC2)cc1` [Compound 79], the “Enzyme activity pIC50” value in data set [1] turned out to be 6.238. In addition, in data set [2], the IC50 is 4290 nM. The solubility in data set [3] is less than 75.8 µM.

For `CN(CCO)Cc1sccc1-c1ccc(S(=O)(=O)N2CCN(c3ncc(C(=O)NO)cn3)CC2)cc1` [Compound 151], the “Enzyme activity pIC50” value in data set [1] was found to be 8.152. The IC50 in data set [2] was 137 nM. Also, in data set [3], the solubility was greater than 454 µM.

Regarding `Cc1noc(C)c1S(=O)(=O)N1CCN(c2ccc(C(=O)NO)cc2)CC1` [Compound 64], the “Enzyme activity pIC50” value in data set [1] is 5.753. For the same compound, the IC50 in data set [2] was 8910 nM. Also, the solubility in data set [3] is greater than 454 µM.

Consider `O=C(NO)c1ccc(N2CCN(S(=O)(=O)c3ccc(-c4ccccn4)s3)CC2)cc1` [Compound 68], for which the “Enzyme activity pIC50” value in data set [1] is 6.908. For the same compound, the IC50 in data set [2] was 1230 nM. Besides, the solubility in data set [3] was less than 75.8 µM.

As for `O=C(NO)c1ccc(N2CCN(S(=O)(=O)c3cccc4cccnc34)CC2)cc1` [Compound 71], the “Enzyme activity pIC50” value in data set [1] is reported as 6.449. Besides, the IC50 in data set [2] is 2470 nM. Besides, in data set [3], the solubility is greater than 454 µM.

Regarding `O=C(NO)c1cnc(N2CCN(S(=O)(=O)N3CCOCC3)CC2)nc1` [Compound 14], in data set [1], the “Enzyme activity pIC50” value is on record as 6.621. For the same compound, in data set [2], the IC50 was 5790 nM. The solubility in data set [3] is greater than 454 µM.

For the compound `CN1CCN(Cc2sccc2-c2ccc(S(=O)(=O)N3CCN(c4ncc(C(=O)NO)cn4)CC3)cc2)CC1` [Compound 144], the “Enzyme activity pIC50” value in data set [1] was 8.428. In addition, the IC50 in data set [2] is 81.5 nM. In data set [3], the solubility is greater than 454 µM.

For `O=C(NO)c1cnc(N2CCN(S(=O)(=O)c3ccc(-c4ccccc4)cc3)CC2)nc1` [Compound 128], the “Enzyme activity pIC50” value in data set [1] came to 8.078. Also, the IC50 in data set [2] was 81.3 nM. For the same compound, the solubility in data set [3] was 75.8 to 454 µM (≈ 33.3 to 200 µg/mL).
